Results from patent US7928182B2, “Glycerol polycarbonate, organic compositions containing same and method for obtaining said compositions” (Condat S.A., priority 2004, dated 2011).

Legend:
Type in all cases: physicochemical
[1] = Combustion heat (ASTM D240); settings: reference samples and control
Experimental: b) The combustion heat (kJ/g) was also measured according to standard ASTM D240. The combustion heat characterises the calorific energy released by a burning compound. The higher this value is, the better fuel a compound is and the more the “fire” is maintained by this factor, which is the temperature.

Density (densimeter) = settings: 25° C., glycerol carbonate alone; in g/cm3 (unit assumed)
[2] = Surface tension (ring tensiometer); settings: 25° C., glycerol carbonate alone; in mN/m (unit assumed)

Combustion heat [1] [kJ/g]	Density (Density (densimeter))	Surface tension [2]	Compound
26.4			CCO [Ethanol]
	1.386	53.81	O=C1OCC(CO)O1 (centres unmarked) [glycerol carbonate]
40.2			CCCCCCC [Heptane]

Compound	Combustion heat [1] [kJ/g]	Density (Density (densimeter))	Surface tension [2]
CO [Methanol]	19.6		
